Measurements published in ChEMBL document CHEMBL3991601, “The target landscape of clinical kinase drugs” (Science, 2017).
pKd: −log10 of the molar value. Where a name gives a salt, the structure may show the parent alone. Calls of active or inactive are those of the source. Rule as the data show it, for most assays here: actives have a measured Kd and inactives only a lower limit.

Experiments:
Activin receptor type-2B = Activin receptor type-2B (Homo sapiens, UniProt Q13705)
Aurora kinase B = Aurora kinase B (Homo sapiens, UniProt Q96GD4)
Sequence of Aurora kinase B (Q96GD4 whole entry): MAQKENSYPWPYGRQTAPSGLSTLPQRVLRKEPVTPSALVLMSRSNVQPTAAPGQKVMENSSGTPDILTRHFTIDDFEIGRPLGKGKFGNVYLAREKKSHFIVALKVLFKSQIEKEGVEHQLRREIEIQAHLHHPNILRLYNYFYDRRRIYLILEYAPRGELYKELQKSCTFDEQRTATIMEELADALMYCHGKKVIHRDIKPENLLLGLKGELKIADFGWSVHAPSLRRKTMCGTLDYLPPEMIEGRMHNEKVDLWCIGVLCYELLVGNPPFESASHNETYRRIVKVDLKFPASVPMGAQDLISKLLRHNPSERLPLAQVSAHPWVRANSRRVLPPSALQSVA

GTP-binding protein 4 = GTP-binding protein 4 (Homo sapiens, UniProt Q9BZE4)
[1] = target: Tyrosine-protein kinase HCK (Homo sapiens, UniProt P08631)
Sequence of Tyrosine-protein kinase HCK (P08631 whole entry, the tested form may be a part): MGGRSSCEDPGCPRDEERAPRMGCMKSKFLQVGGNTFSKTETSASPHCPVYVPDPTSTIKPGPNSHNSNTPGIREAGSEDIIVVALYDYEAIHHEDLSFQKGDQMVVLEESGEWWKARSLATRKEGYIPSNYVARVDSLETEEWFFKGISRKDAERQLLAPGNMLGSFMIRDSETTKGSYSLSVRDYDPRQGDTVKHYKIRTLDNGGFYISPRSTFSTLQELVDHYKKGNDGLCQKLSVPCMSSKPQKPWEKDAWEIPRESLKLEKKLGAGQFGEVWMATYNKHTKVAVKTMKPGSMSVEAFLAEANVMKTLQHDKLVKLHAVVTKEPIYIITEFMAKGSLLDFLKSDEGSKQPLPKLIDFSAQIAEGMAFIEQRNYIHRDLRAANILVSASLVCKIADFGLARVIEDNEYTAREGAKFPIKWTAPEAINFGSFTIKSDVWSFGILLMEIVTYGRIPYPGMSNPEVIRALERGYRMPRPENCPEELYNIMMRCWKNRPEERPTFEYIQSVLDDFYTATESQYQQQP

LIM domain kinase 1 = LIM domain kinase 1 (Homo sapiens, UniProt P53667)
LIM domain kinase 2 = LIM domain kinase 2 (Homo sapiens, UniProt P53671)
[2] = target: T1, Mitogen-activated protein kinase kinase kinase kinase 3 (Homo sapiens, UniProt Q8IVH8)
T1 sequence (Q8IVH8 whole entry): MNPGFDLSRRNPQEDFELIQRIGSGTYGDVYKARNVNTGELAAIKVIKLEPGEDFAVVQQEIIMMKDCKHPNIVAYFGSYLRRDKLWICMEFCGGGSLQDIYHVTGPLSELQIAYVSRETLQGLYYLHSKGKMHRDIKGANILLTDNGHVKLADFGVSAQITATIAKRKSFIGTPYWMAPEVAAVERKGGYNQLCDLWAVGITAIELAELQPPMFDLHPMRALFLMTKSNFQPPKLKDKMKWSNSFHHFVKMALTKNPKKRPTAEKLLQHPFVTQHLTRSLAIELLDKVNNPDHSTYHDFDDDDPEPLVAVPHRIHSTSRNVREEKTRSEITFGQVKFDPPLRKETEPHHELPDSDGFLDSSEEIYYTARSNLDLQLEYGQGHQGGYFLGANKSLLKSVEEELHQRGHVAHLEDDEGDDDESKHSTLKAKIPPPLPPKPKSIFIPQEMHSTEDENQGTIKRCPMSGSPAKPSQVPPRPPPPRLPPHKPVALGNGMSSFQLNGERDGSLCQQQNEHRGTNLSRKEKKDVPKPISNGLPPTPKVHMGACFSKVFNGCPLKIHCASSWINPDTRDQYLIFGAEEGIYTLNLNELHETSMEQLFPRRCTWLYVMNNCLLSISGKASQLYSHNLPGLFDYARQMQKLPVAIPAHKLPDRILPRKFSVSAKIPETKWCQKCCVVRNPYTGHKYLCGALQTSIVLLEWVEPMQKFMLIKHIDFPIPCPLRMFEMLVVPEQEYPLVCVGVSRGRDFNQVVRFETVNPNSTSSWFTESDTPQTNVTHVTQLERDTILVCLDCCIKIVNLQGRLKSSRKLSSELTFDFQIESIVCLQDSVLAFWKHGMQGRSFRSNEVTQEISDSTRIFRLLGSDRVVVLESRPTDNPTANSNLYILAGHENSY

[3] = target: Mitogen-activated protein kinase 11 (Homo sapiens, UniProt Q15759)
[4] = target: Mitogen-activated protein kinase 7 (Homo sapiens, UniProt Q13164)
Sequence of Mitogen-activated protein kinase 7 (Q13164 whole entry): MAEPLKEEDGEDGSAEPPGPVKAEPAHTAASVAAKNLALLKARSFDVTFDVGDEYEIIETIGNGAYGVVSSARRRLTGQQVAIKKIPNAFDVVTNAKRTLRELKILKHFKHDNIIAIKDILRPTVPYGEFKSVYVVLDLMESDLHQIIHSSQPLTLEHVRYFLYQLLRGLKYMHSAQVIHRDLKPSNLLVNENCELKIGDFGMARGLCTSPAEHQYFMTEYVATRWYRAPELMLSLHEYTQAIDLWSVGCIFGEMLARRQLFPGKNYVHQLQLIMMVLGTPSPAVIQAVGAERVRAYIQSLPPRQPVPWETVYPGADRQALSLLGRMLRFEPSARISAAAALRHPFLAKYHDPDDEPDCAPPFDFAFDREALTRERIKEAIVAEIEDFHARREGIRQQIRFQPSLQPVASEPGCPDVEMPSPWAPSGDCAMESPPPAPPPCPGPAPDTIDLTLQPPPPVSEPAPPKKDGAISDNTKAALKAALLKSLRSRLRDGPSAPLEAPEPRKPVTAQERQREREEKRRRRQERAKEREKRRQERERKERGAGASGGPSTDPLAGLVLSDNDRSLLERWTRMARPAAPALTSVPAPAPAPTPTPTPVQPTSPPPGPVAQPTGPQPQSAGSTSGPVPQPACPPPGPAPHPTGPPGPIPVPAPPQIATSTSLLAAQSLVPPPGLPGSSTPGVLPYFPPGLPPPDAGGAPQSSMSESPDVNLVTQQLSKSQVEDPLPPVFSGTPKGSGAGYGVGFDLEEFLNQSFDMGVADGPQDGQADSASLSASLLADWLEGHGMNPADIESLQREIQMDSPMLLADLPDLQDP

[5] = target: Mitogen-activated protein kinase 8 (Homo sapiens, UniProt P45983)
Sequence of Mitogen-activated protein kinase 8 (P45983 whole entry, the tested form may be a part): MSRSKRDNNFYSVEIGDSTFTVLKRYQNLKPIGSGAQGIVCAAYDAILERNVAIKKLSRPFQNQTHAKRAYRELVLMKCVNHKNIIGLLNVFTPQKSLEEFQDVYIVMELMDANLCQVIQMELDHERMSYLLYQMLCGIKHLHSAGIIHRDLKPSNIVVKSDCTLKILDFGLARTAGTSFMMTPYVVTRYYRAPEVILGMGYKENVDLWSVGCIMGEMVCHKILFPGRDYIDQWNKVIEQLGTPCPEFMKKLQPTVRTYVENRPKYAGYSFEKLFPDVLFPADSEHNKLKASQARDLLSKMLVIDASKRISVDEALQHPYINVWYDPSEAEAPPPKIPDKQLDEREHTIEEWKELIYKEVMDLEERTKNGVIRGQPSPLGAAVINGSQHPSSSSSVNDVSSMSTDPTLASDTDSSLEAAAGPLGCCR

[6] = target: PAS domain-containing serine/threonine-protein kinase (Homo sapiens, UniProt Q96RG2)
[7] = target: T2, Phosphatidylinositol 5-phosphate 4-kinase type-2 alpha (Homo sapiens, UniProt P48426)
T2 sequence (P48426 whole entry): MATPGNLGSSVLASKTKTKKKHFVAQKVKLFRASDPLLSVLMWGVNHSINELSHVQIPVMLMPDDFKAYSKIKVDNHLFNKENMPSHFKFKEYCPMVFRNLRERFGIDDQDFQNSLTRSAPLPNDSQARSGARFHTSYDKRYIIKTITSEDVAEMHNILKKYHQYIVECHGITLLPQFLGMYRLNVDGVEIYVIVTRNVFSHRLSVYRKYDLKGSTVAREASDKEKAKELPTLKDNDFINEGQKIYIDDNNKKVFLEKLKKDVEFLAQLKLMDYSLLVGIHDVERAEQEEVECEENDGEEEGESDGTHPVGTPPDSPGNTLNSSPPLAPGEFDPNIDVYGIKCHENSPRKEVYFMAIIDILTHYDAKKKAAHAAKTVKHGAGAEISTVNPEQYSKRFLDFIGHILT

[8] = target: 5'-AMP-activated protein kinase catalytic subunit alpha-1 (Homo sapiens, UniProt Q13131)
Sequence of 5'-AMP-activated protein kinase catalytic subunit alpha-1 (Q13131 whole entry): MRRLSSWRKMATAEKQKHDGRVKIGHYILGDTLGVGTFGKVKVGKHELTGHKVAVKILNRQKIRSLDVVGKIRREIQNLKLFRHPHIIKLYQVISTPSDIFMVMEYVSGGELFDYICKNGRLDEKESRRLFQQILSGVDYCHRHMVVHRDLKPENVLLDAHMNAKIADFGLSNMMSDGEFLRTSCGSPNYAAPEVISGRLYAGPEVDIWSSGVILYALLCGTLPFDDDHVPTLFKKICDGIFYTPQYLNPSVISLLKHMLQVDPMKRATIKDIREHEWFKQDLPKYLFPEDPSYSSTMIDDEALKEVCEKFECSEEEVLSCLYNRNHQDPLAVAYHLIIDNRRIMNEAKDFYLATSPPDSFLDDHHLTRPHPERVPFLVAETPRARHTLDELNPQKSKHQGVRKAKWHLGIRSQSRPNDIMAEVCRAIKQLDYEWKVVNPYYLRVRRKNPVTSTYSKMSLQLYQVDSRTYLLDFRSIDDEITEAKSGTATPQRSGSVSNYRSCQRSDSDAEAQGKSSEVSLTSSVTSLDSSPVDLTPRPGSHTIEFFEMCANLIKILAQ

[9] = target: Protein-tyrosine kinase 6 (Homo sapiens, UniProt Q13882)
Sequence of Protein-tyrosine kinase 6 (Q13882 whole entry): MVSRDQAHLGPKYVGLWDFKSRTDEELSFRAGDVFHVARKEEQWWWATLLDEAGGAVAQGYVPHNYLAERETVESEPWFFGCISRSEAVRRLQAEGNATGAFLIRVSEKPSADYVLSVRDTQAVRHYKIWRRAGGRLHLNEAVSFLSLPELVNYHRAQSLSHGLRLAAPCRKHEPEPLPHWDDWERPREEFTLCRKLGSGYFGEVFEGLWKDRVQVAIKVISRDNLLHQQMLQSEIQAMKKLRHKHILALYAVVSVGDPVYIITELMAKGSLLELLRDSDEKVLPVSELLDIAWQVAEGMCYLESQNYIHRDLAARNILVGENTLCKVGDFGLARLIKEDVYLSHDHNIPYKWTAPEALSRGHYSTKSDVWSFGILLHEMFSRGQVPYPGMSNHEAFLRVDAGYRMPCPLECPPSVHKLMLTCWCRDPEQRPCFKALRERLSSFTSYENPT

[10] = target: Rho-associated protein kinase 1 (Homo sapiens, UniProt Q13464)
Sequence of Rho-associated protein kinase 1 (Q13464 whole entry): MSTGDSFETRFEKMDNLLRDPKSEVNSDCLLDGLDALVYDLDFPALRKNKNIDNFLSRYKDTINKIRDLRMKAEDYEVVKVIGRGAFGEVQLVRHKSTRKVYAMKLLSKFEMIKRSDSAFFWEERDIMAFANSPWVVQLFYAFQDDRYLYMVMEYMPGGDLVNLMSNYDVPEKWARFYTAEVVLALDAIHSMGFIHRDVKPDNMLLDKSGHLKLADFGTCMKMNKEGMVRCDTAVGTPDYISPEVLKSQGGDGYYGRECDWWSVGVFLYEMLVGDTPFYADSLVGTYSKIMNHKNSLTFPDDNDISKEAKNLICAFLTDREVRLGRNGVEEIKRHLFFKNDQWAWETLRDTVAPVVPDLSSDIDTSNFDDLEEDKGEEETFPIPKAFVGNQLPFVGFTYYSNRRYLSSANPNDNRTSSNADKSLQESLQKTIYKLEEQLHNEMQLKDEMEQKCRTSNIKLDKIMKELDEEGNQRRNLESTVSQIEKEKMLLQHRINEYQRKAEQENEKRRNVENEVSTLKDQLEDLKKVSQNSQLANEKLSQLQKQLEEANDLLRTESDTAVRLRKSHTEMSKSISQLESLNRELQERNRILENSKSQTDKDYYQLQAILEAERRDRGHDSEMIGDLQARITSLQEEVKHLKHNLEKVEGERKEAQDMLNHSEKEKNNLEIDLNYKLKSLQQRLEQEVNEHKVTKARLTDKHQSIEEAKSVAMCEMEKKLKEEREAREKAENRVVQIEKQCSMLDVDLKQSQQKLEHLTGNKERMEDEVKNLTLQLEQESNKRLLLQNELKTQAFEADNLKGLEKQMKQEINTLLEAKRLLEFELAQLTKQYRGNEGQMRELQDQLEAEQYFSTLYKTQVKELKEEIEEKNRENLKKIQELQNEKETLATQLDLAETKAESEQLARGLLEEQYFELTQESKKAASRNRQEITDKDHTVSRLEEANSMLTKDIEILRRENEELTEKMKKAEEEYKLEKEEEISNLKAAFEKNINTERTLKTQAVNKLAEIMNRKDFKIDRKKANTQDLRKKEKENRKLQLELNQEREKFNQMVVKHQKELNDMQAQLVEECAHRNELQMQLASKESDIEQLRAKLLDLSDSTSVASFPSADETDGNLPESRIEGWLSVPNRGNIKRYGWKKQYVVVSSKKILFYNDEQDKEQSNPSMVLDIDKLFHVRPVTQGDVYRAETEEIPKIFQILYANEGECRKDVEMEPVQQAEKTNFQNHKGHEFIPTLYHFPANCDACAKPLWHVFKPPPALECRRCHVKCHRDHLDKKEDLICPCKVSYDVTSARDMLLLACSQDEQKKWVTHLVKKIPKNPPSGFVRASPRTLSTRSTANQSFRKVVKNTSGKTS

[11] = target: T3, Succinate--CoA ligase [ADP-forming] subunit beta, mitochondrial (Homo sapiens, UniProt Q9P2R7)
T3 sequence (Q9P2R7 whole entry): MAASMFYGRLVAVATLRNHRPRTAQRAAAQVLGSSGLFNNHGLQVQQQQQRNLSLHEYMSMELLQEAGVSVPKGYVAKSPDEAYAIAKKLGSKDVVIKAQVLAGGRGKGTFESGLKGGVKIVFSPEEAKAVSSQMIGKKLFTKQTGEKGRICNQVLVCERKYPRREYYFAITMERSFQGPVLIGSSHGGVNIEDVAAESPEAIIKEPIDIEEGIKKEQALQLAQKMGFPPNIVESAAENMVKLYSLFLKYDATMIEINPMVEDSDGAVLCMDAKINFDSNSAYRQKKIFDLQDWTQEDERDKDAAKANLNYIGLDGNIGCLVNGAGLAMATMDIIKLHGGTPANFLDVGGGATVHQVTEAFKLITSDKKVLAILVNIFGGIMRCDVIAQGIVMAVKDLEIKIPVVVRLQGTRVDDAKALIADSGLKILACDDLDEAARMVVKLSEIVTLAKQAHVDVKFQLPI
Also: in the data inactive means no Kd found up to 30 µM.

Sequence of Activin receptor type-2B (Q13705 whole entry): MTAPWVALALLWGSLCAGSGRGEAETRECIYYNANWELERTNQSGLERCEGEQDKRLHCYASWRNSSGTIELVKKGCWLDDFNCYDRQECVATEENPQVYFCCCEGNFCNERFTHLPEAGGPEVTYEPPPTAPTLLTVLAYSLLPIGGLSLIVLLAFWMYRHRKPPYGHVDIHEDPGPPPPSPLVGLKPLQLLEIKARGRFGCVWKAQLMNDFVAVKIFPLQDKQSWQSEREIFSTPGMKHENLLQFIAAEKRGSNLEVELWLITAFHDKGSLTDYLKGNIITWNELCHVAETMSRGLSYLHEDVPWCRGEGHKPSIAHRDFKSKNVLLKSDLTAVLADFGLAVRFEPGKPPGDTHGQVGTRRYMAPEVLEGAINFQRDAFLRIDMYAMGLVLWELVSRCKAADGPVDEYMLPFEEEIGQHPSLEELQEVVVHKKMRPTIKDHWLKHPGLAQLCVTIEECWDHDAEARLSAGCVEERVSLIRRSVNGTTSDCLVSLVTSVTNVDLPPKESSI

Row | Kd (Activin receptor type-2B) | Kd (Aurora kinase B) | Kd (GTP-binding protein 4) | Kd [1] | Kd (LIM domain kinase 1) | Kd (LIM domain kinase 2) | Kd [2] | Kd [3] | Kd [4] | Kd [5] | Kd [6] | Kd [7] | Kd [8] | Kd [9] | Kd [10] | Kd [11] | pKd (Aurora kinase B) | SMILES
1 | > 30 µM (inactive) | > 30 µM (inactive) | > 30 µM (inactive) | > 30 µM (inactive) | > 30 µM (inactive) | > 30 µM (inactive) | > 30 µM (inactive) | > 30 µM (inactive) | > 30 µM (inactive) | > 30 µM (inactive) | > 30 µM (inactive) | > 30 µM (inactive) | > 30 µM (inactive) | > 30 µM (inactive) | > 30 µM (inactive) | > 30 µM (inactive) | – | C=CC(=O)Nc1cc2c(Nc3ccc(F)c(Cl)c3)ncnc2cc1C#CC(C)(C)N1CCN(C)CC1 [AV-412 FREE BASE]
2 | > 30 µM (inactive) | 3.79 µM (active) | > 30 µM (inactive) | > 30 µM (inactive) | > 30 µM (inactive) | > 30 µM (inactive) | 0.033 µM (active) | > 30 µM (inactive) | > 30 µM (inactive) | 0.356 µM (active) | > 30 µM (inactive) | > 30 µM (inactive) | 10.8 µM (active) | > 30 µM (inactive) | > 30 µM (inactive) | > 30 µM (inactive) | – | CCS(=O)(=O)N1CCN(c2ccc(Nc3ncc(C(N)=O)c(NC4CC4)n3)cc2)CC1 [Cerdulatinib Hydrochloride]
3 | > 30 µM (inactive) | > 30 µM (inactive) | > 30 µM (inactive) | > 30 µM (inactive) | > 30 µM (inactive) | > 30 µM (inactive) | > 30 µM (inactive) | > 30 µM (inactive) | > 30 µM (inactive) | > 30 µM (inactive) | > 30 µM (inactive) | > 30 µM (inactive) | > 30 µM (inactive) | > 30 µM (inactive) | > 30 µM (inactive) | > 30 µM (inactive) | – | Cc1cccc(-c2nn3c(c2-c2ccnc4ccc(C(N)=O)cc24)CCC3)n1 [GALUNISERTIB]
4 | > 30 µM (inactive) | – | – | 1.32 µM (active) | > 30 µM (inactive) | > 30 µM (inactive) | 2.06 µM (active) | > 30 µM (inactive) | > 30 µM (inactive) | > 30 µM (inactive) | > 30 µM (inactive) | > 30 µM (inactive) | > 30 µM (inactive) | > 30 µM (inactive) | > 30 µM (inactive) | > 30 µM (inactive) | 5.12 | CNC(=O)c1nn(C)c2c1C(C)(C)Cc1cnc(Nc3ccc(N4CCN(C)CC4)cc3)nc1-2 [MILCICLIB]
5 | > 30 µM (inactive) | > 30 µM (inactive) | > 30 µM (inactive) | > 30 µM (inactive) | > 30 µM (inactive) | > 30 µM (inactive) | > 30 µM (inactive) | > 30 µM (inactive) | > 30 µM (inactive) | > 30 µM (inactive) | > 30 µM (inactive) | > 30 µM (inactive) | > 30 µM (inactive) | > 30 µM (inactive) | > 30 µM (inactive) | > 30 µM (inactive) | – | NC1(c2ccc(-c3nc4ccn5c(=O)[nH]nc5c4cc3-c3ccccc3)cc2)CCC1 [MK-2206]
6 | > 30 µM (inactive) | > 30 µM (inactive) | > 30 µM (inactive) | > 30 µM (inactive) | > 30 µM (inactive) | > 30 µM (inactive) | > 30 µM (inactive) | > 30 µM (inactive) | > 30 µM (inactive) | > 30 µM (inactive) | > 30 µM (inactive) | > 30 µM (inactive) | > 30 µM (inactive) | > 30 µM (inactive) | > 30 µM (inactive) | > 30 µM (inactive) | – | Cn1cc(-c2cnc3ccc4ccc(CS(=O)(=O)NCc5ccccn5)cc4c(=O)c3c2)cn1 [MK-8033]
7 | > 30 µM (inactive) | > 30 µM (inactive) | > 30 µM (inactive) | > 30 µM (inactive) | > 30 µM (inactive) | > 30 µM (inactive) | > 30 µM (inactive) | > 30 µM (inactive) | > 30 µM (inactive) | > 30 µM (inactive) | > 30 µM (inactive) | – | > 30 µM (inactive) | > 30 µM (inactive) | > 30 µM (inactive) | > 30 µM (inactive) | – | FC(F)(F)c1ccc(/C=C/c2nc(COc3ccc(CCCCn4ccnn4)cc3)co2)cc1 [MUBRITINIB]
8 | > 30 µM (inactive) | 0.004 µM (active) | > 30 µM (inactive) | 6.39 µM (active) | 2.07 µM (active) | > 30 µM (inactive) | 0.526 µM (active) | > 30 µM (inactive) | > 30 µM (inactive) | > 30 µM (inactive) | > 30 µM (inactive) | – | 0.38 µM (active) | > 30 µM (inactive) | > 30 µM (inactive) | > 30 µM (inactive) | – | CC(C)c1cc(CNc2nc(Nc3cc(C4CC4)[nH]n3)cc(N3CCN(C)CC3)n2)on1 [XL-228]

Row | SMILES | Kd (Activin receptor type-2B) | Kd (Aurora kinase B) | Kd (GTP-binding protein 4) | Kd [1] | Kd (LIM domain kinase 1) | Kd (LIM domain kinase 2) | Kd [2] | Kd [3] | Kd [4] | Kd [5] | Kd [6] | Kd [7] | Kd [8] | Kd [9] | Kd [10] | Kd [11] | pKd (Aurora kinase B)
9 | CNC(=O)c1cc(Oc2ccc(NC(=O)Nc3cc(C(C)(C)C)nn3-c3ccc4ncccc4c3)c(F)c2)ccn1 [REBASTINIB] | > 30 µM (inactive) | > 30 µM (inactive) | > 30 µM (inactive) | – | 0.535 µM (active) | 3.5 µM (active) | > 30 µM (inactive) | > 30 µM (inactive) | > 30 µM (inactive) | – | > 30 µM (inactive) | > 30 µM (inactive) | > 30 µM (inactive) | – | > 30 µM (inactive) | > 30 µM (inactive) | –
10 | Cc1cc(Nc2ncnc3ccc(NC4=NC(C)(C)CO4)cc23)ccc1Oc1ccn2ncnc2c1 [TUCATINIB] | > 30 µM (inactive) | > 30 µM (inactive) | > 30 µM (inactive) | > 30 µM (inactive) | > 30 µM (inactive) | > 30 µM (inactive) | > 30 µM (inactive) | > 30 µM (inactive) | > 30 µM (inactive) | > 30 µM (inactive) | > 30 µM (inactive) | > 30 µM (inactive) | > 30 µM (inactive) | > 30 µM (inactive) | > 30 µM (inactive) | > 30 µM (inactive) | –
